Measurements from patent US8398958B2, “Carotenoid compositions useful for whitening skin” (I.B.R. Israeli Biotechnology Research Ltd., priority 2006, dated 2013).

Experiments:
[1] = tested on: Normal human epidermal melanocytes (NHEM-2); test: Melanin assay - normal human melanocytes; assay type: cell-based; settings: for Melanin: 240 hours incubation; for % of control (melanin content): 240 hours, vs control
Method: The R6-NHEM-2 cells were cultivated in 24 well plates (120,000 cells/well). At 50% confluence, culture media were replaced by fresh media containing or not containing (control) the test compound, KA or IBMX (references) or DMSO at a final concentration of 0.5% (control DMSO). Each experimental condition was examined in triplicate (hexaplicate for control). The cells were incubated at 37° C. for 240 hours with medium change every 3 days.
(§1) After incubation, the cell monolayers were rinsed, the cells were lysed and melanin was extracted by a solution 0.5 M NaOH. The optical density (OD) of each experimental point was measured at 405 nm against melanin standards (standard curve 0.39 to 100 μg melanin/ml solution, Sigma M8631). Results were expressed in μg melanin/ml and in percent of the negative control.
(§2) The raw data were transferred to and analyzed with PRISM® software (Graph Pad Software). The inter-group comparisons were performed by variance analysis (ANOVA) with multiple comparison test of Dunnett.

[2] = tested on: B16 murine melanoma cells; test: Melanin assay - B16 murine melanoma; assay type: cell-based; settings: tested at 0.04%
Method: The R7-B16 cells were cultivated in 24 well plates (1000 cells/well). At 20% confluence, culture media were replaced by fresh media containing or not containing (control) the test compound, KA or IBMX (references) or DMSO at a final concentration of 0.5% (control DMSO). Each experimental condition was examined in triplicate. The cells were incubated at 37° C. for 144 hours with medium change after 3 days (2×72 h).
as §1, §2

## O=c1cc(CO)occ1O [Kojic Acid]
[1]; tested at 0.00156%
  Melanin: 16.1 µg/mL
  % of control (melanin content): 79%
[1]; tested at 0.0036%
  Melanin: 13.6 µg/mL
  % of control (melanin content): 67%
[2]; 144 hours incubation
  Melanin: 14.9 µg/mL
[2]; 144 hours, vs control
  % of control (melanin content): 88%
